{"source": "patent US20220202805A1", "about": "“REBAMIPIDE FOR USE IN PREVENTION AND/OR TREATMENT OF SYNUCLEINOPATHIES” (SQUARE POWER LTD., priority 2019, published 2022)", "system": "β-sitosterol β-D-glucoside (BSSG) model", "experiment": "BSSG-induced Parkinson's disease model in rats, 10-month study", "type": "in vivo, Male Sprague Dawley rats", "text": "Increased intestinal permeability may lead to a leakage of various substances (such as bacterial toxins and xenobiotics), that are normally unable to cross the gut wall, from the intestine into the body proper, which may trigger synthesis of misfolded alpha-synuclein in the enteric wall and its transfer to the brain via n. vagus. The increased intestinal permeability is a typical consequence of epithelial dysfunction caused by all sorts of enteric inflammation. Therefore, induction of the inflammatory process may be used for setting of disease models. […] When fed to rodents, cycad flour triggers a progressive development of neurological deficits, with behavioral and cellular features that closely approximate those observed in patients. Besides neurotoxic properties, BSSG directly interacts with epithelium. It loosens tight junctions in mucosa via increase of intracellular calcium levels and thus increases permeability of epithelium.\nMale Sprague Dawley rats were used in a study performed during 10 months. The animals were put on the baseline diet consisting of BSSG, 3 mg/day, 5 doses weekly p.o. in Month 1 to Month 4. […]\nThe observed parameters: • 1. Quantitative analysis of misfolded α-synuclein in substantia nigra lysate • 2. Quantitative analysis of misfolded α-synuclein in intestinal lysate • 3. Quantitative analysis of misfolded α-synuclein in olfactory bulb lysate • 4. […]\nFinal analysis at Month 10 to investigate neurodegenerative disease progression: after in vivo tests (locomotion, coordination, and cognitive) a subgroup of animals in each experimental group is sacrificed. […] In addition inflammatory markers such as TNF-α, IL-6, etc. in brain section samples and serum are measured.\nIn order to evaluate the overall efficacy of rebamipide in Parkinson's disease a Cumulative PD Score was calculated. […]"}
{"molecule": "O=C(NC(Cc1cc(=O)[nH]c2ccccc12)C(=O)O)c1ccc(Cl)cc1", "note": "(stereo not drawn) [Rebamipide, 2-[(4-chlorobenzoyl)amino]-3-(2-oxo-1H-quinolin-4-yl)propanoic acid]", "values": [{"measurement": "alpha-synuclein aggregates in comparison with the placebo group", "setting": "rebamipide 30 or 200 mg/kg/day p.o. in feed, BSSG 3 mg/day, histological analysis, preliminary results", "result": "reduced"}, {"measurement": "parameters tested including functional tests", "setting": "rebamipide 30 or 200 mg/kg/day p.o. in feed, BSSG 3 mg/day, vs placebo, preliminary results", "result": "significant improvement"}, {"measurement": "Cumulative PD score, better as compared to the placebo group", "setting": "weighted score of α-synuclein, functional, permeability, inflammatory, olfactory, retinal tests and mortality, rebamipide treated group vs placebo", "result": "more than 20%"}]}
